Data as given in patent publication US20240342190A1, “METHODS FOR REDUCING ISCHEMIA-REPERFUSION INJURIES” (BioMimetix JV, LLC, priority 2023, published 2024).
“Also recorded” adds a separate entry of the source.

Tested on: brain tissues and vessels (vascular endothelial wall)
Assay: Experiment 7: body weight and brain/vascular histology after intracarotid infusion
Conditions: non-stroke rats; 3 days after intracarotid infusion; H&E
Protocol: 30 μg/kg of BMX-001 (n=4), or same amount of saline (n=4) or Solu-Medrol (n=4) was given to normal Wistar rats through the carotid artery. Rats were recovered for 3 days and perfused intracardially with normal saline followed by 10% formalin. Brains were paraffin embedded, cut, and stained with hematoxylin and eosin. Vascular histologic damage was assessed.

Question: Which “Brain histology / vascular histologic damage, in words” value does the source give for `CCCCOCC[n+]1ccccc1C1=C2C=CC3=[N+]2[Mn]24[n]5c1ccc5C(c1cccc[n+]1CCOCCCC)=C1C=CC(=[N+]12)C(c1cccc[n+]1CCOCCCC)=c1ccc([n]14)=C3c1cccc[n+]1CCOCCCC` [BMX-001, MnTnBuOE-2-PyP^5+] here?
Answer: normal; also recorded: no histologic damage
